Like-named read-outs stand apart in the source and are kept apart here.
Assays:
[1] = Acid neutralizing capacity (ANC) test and contribution of each active ingredient (21 C.F.R. 331); format: physicochemical
Method: Acid Neutralizing Capacity
Reagent standardization: as disclosed above.
Temperature: as disclosed above.
pH meter: as disclosed above.
Test suspension: the composition of Ex 1 was well-mixed and exactly 16.0 g (one unit dose) were transferred into a 250 ml glass beaker; sufficient water was added to obtain a total volume of about 70 ml; the resulting suspension was then mixed by means of a magnetic stirrer at 300±30 rpm for one minute. […]
Calculation of the mEq value: the number of mEq of acid neutralized by the test suspension was calculated as follows: […]
an accurately measured volume of an aluminum phosphate suspension containing exactly 9.904 g of aluminum phosphate gel, corresponding to the amount present in a one unit dose (16 g) of the antacid composition of Ex 1, were placed into a 250 ml glass beaker; distilled water was added up to a volume of 70 ml and the resulting suspension was mixed by means of a magnetic stirrer at 300±30 rpm for one minute; […]
Calculation: the percent contribution of each active ingredient in the total antacid composition of Ex 1 was calculated as follows: [formula]

[2] = Labelling of aluminum phosphate gel-containing antacid material with nuclide materials; format: physicochemical
Text: After testing several nuclide materials having suitable gamma energies in the range of from 60 to 500 keV, such as ^99m technetium-containing materials (^99m Tc-sulfur colloids, ^99m Tc-albumin microspheres, ^99m Tc-dimercaptosuccinic acid complexes, ^99m Tc-polyphosphates, -pyrophosphates and -diphosphonates), it appeared that ^99m Tc-hydroxymethylene diphosphonate (^99m Tc-HMDP) is the most suitable radiopharmaceutical material for labelling aluminum phosphate gel-containing antacid material.

[3] = oral, cited from earlier work
[4] = 21 C.F.R. 331; cited from earlier work

## [O]=[Mg] [MgO, magnesium oxide]
[1]; amount present in one unit dose of Ex 1
  contribution of active ingredient to ANC: 4.88 mEq
[1]; relative to total antacid composition of Ex 1
  percent contribution of active ingredient to total ANC: 40%

## ^99m Tc-hydroxymethylene diphosphonate [^99m Tc-HMDP]
[2]
  labelling efficiency: high labelling efficiency
[2]; mainly glass
  adsorption onto the wall of the reaction vessels or tubes: substantially non-adsorbed

## sucralfate
[3]; no ulceration
  Al-adhesiveness duration: 3 to 4 h
[3]; ulcerated sites of the gastric mucous membrane
  Al-adhesiveness duration: about 24 h
[4]
  antacid properties: devoid of any antacid properties
